Experimental data taken from patent US11007169B2, “Cis-gnetin H and trans-gnetin H as therapeutic agents” (MIDDLE TENNESSEE STATE UNIVERSITY, priority 2014, dated 2021).

Key:
[1] = test system: p65 (RelA) nuclear translocation in THP-1 cells; test: Indirect immunofluorescence for NF-κB nuclear translocation; assay type: cell-based, human; conditions: pretreated 1 h, LPS 30 min; Bay 11-7082 10 μM
Method: (§1) THP-1 cells were maintained in RPMI 1640 medium supplemented with 10% complement-inactivated FBS and 1% penicillin/streptomycin (complete culture medium) at 37° C. with 5% CO2 supplemented. Cell concentrations were adjusted to desired concentrations for each experiment by centrifugation at 500×g for 5 min and resuspended in complete culture medium with 100 nM of PMA. Cell concentration was adjusted to 5×10^5 cells/ml for all assays and 2.5×10^5 cells/ml were used for NF-κB nuclear translocation assay. Cells were seeded onto 96-, 24-, or 12-well plates and incubated for 48 to 72 h to allow for differentiation. Cells were washed with serum-free RPMI 1640 medium before each experiment to remove the undifferentiated cells.
Differentiated THP-1 cells were pretreated with 50 μM of cis-gnetin H, trans-gnetin H, or 10 μM of Bay 11-7082 for 1 h and stimulated with 1 μg/ml of LPS for 30 min. Bay 11-7082 is a compound that inhibits IKK α/β and IκB α phosphorylation and was used as a positive control (Juliana et al., 2010, J. Biol. Chem., 285:9792-802). Treated cells were fixed, permeabilized, blocked, and stained with NF-κB, p65 primary antibody, Dylight 488 conjugated secondary antibody, and Hoechst 33342 dye, sequentially. The Hoechst and DyLight fluorophores detect changes in nuclear morphology (blue fluorescence) and NF-κB distribution (green fluorescence) respectively. Nuclear Translocation Bioapplication software on the Arrayscan VTI reader was used for image acquisition and analysis. For each well, at least 400 cells were automatically acquired and analyzed. The translocation index was calculated by measuring the average intensity difference of NF-icB between the identified cytoplasmic region and nuclear region.

[2] = test system: phosphorylated IKK α/β (Ser176/180) in LPS-stimulated THP-1 cells; test: Western blot, IKK β phosphorylation; assay type: cell-based, human
Method: as §1
(§2) Differentiated THP-1 cells were pretreated with various concentrations of cis-gnetin H, trans-gnetin H, or 10 μM of Bay 11-7082 for 1 h and stimulated with 1 μg/ml of LPS for 15 min. Cells were lysed with radio-immunoprecipitation assay (RIPA; 1% Triton X-100, 0.5% Sodium deoxycholate, 0.1% sodium dodecyl sulfate, 150 mM sodium chloride, and 50 mM Tris-chloride) lysis buffer that contained protease and phosphatase inhibitor cocktail. Cell lysates were then tested for protein concentration using a BCA protein assay, and diluted with RIPA lysis buffer to normalize protein concentration in all samples. […]

[3] = test system: phosphorylated p65 (Ser536) in LPS-stimulated THP-1 cells; test: Western blot, p65 phosphorylation; assay type: cell-based, human
Method: as §1, §2

A549 cells = test: Apoptosis assay by flow cytometry, A549; assay type: cell-based, human; conditions: 100 μM, 24 hours
Method: A549 and BT20 cells were seeded in a 96-well plate (BD Falcon) at a density of 8000 cells/well, and treated with cis- or trans-gnetin H for 24 hours. Apoptosis was assessed using Annexin V/7-AAD double staining as described (Bai et al., Cancer Sci. 2010; 101(2):488-493). Cells were analyzed on a Guava Flow Cytometer (Millipore) using InCyte software and the data was exported to FlowJo software for image display.

[4] = test system: HMEC cells (human mammary epithelial cells); test: Inhibition of cell proliferation, AlamarBlue fluorescent assay, HMEC normal control; assay type: cell-based; conditions: for inhibitory effects on normal HMEC cells: 10 uM, up to 48 hours; for IC50: Homo sapiens, HMEC, 48 hours, AlamarBlue, normal cell line
Method: The cancer cell lines used in this study included human lung carcinoma (A549), human breast carcinoma (BT20 and MCF-7) and human osteosarcoma (U2OS), with the normal cell lines human peripheral lung epithelial cells (HPL1A) and human mammary epithelial cells (HMEC) serving as controls. A549, BT20, MCF-7, U2OS and HMEC cells were purchased from American Type Culture Collection (ATCC, USA), and HPL1A cells were obtained from Nagoya University, Japan. A549 and BT20 were grown in RPMI-1640 (Sigma), MCF-7 was grown in Dulbecco's Modified Eagle Medium (DMEM) (Sigma) supplemented with 0.01 mg/ml human recombinant insulin (Sigma), U2OS and HMEC were grown in McCoy's 5A (ATCC), and HPL1A was grown in DMEM/F-12K (Sigma). The mediums were supplemented with 10% Fetal Bovine Serum (FBS) (Gibco), 1% penicillin and streptomycin and incubated in a humidified atmosphere with 5% CO2 at 37° C.
The proliferation inhibition potential of cis- and trans-gnetin H was determined by a fluorescence dye staining method. Cells were seeded in a 96-well tissue culture-treated plate (BD Falcon) at a density of 4000 cells/well, and treated with cis- or trans-gnetin H for 48 hours. AlamarBlue dye (Invitrogen) was used to assess the viability of cells according to the manufacturer's instructions; the fluorescent intensity was read on a SpectraMax M2e microplate reader (Molecular Devices Inc.).
For the determination of IC50 values, cells were treated with a serial dilution (320 μM, 100 μM, 32 μM, 10 μM, 3.2 μM, and 0.32 μM) of cis- or trans-gnetin H for 48 hours. Cell viability was determined with AlamarBlue dye (Invitrogen) and the IC50 values were calculated using non-linear regression analysis.

[5] = test system: phosphorylated IκB α (Ser32) in LPS-stimulated THP-1 cells; test: Western blot, IκB α phosphorylation; assay type: cell-based, human; conditions: concentration-dependent
Method: as §1, §2

[6] = test system: IL-8 in LPS-stimulated THP-1 cells; test: Cytokine response by ELISA, IL-8; assay type: cell-based, human; conditions: cis 12.5-50 μM, trans 8-30 μM, 20 ng/ml LPS, p<0.05
Method: as §1
Differentiated THP-1 cells were pretreated with various concentrations of cis-gnetin H, trans-gnetin H, or 1 μM of dexamethasone for 1 h and stimulated with 20 ng/ml of LPS for 4 h. Dexamethasone is a synthetic glucocorticoid that suppresses cytokine response and was used as a positive control (Abraham et al., 2006, J. Exp. Med., 203:1883-9; Steer et al., J. Biol. Chem., 2000, 275(24):18432-40). Supernatants were collected for human cytokine ELISAs and the manufacturer's protocol was followed to assess the cytokine response. Cells remaining after the supernatant collection were tested for relative viability by Alamar Blue cytotoxicity assay as described earlier.

Compound	p65 nuclear translocation [1]	IKK β phosphorylation [2]	p65 phosphorylation ([3]; only at the highest concentration, 50 μM)	apoptosis induction in A549 (A549 cells)	inhibitory effects on normal HMEC cells [4]	IC50 [4] [µM]	IκB α phosphorylation [5]	inhibition of IL-8 [6]	p65 phosphorylation ([3]; both 15 and 30 μM)
Oc1ccc(/C=C\c2c3c(cc4c2[C@H](c2cc(O)cc(O)c2)[C@@H](c2ccc(O)cc2)O4)O[C@H](c2ccc(O)cc2)[C@H]3c2cc(O)cc(O)c2)cc1 [cis-gnetin H]	inhibited the p65 nuclear translocation	significantly inhibited	significantly inhibited	induce apoptosis	no such obvious inhibitory effects	26.7	significantly inhibited	significant inhibition	–
Oc1ccc(/C=C/c2c3c(cc4c2[C@H](c2cc(O)cc(O)c2)[C@@H](c2ccc(O)cc2)O4)O[C@H](c2ccc(O)cc2)[C@H]3c2cc(O)cc(O)c2)cc1 [trans-gnetin H]	inhibited the p65 nuclear translocation	significantly inhibited	–	induce apoptosis	no such obvious inhibitory effects	25.9	significantly inhibited	significant inhibition	significantly inhibited
